Test results published in ChEMBL document CHEMBL5126568, “Determination of Slow-Binding HDAC Inhibitor Potency and Subclass Selectivity” (ACS Med Chem Lett, 2022).

Assays:
Histone deacetylase 2 [1] = molecular target: T1, Histone deacetylase 2 (Homo sapiens, UniProt Q92769); details: time 60.0 min
Histone deacetylase 2 [2] = molecular target: T1, Histone deacetylase 2; experiment: Inhibition of full length C-terminal FLAG-tagged HDAC2 (unknown origin) assessed as inhibition constant (Ki) using (Ac-Leu-Gly-Lys(Ac)-AMC as substrate measured every 30 sec for 60 mins by fluorescence based assay
Histone deacetylase 1 [3] = molecular target: T2, Histone deacetylase 1 (Homo sapiens, UniProt Q13547); experiment: Inhibition of full length C-terminal His-tagged HDAC1 (unknown origin) assessed as inhibition constant (Ki) using (Ac-Leu-Gly-Lys(Ac)-AMC as substrate measured every 30 sec for 60 mins by fluorescence based assay
Histone deacetylase 1 [4] = molecular target: T2, Histone deacetylase 1; experiment: Inhibition of full length C-terminal His-tagged HDAC1 (unknown origin) using (Ac-Leu-Gly-Lys(Ac)-AMC as substrate preincubated with enzyme for 30 mins followed by substrate addition and measured after 30 mins by fluorescence based assay
Histone deacetylase 1 [5] = molecular target: T2, Histone deacetylase 1; experiment: Inhibition of full length C-terminal His-tagged HDAC1 (unknown origin) using (Ac-Leu-Gly-Lys(Ac)-AMC as substrate preincubated with enzyme for 1 hrs followed by substrate addition and measured after 30 mins by fluorescence based assay
Histone deacetylase 1 [6] = molecular target: T2, Histone deacetylase 1; experiment: Inhibition of full length C-terminal His-tagged HDAC1 (unknown origin) using (Ac-Leu-Gly-Lys(Ac)-AMC as substrate preincubated with enzyme for 2 hrs followed by substrate addition and measured after 30 mins by fluorescence based assay
Histone deacetylase 2 [7] = molecular target: T1, Histone deacetylase 2; experiment: Inhibition of full length C-terminal FLAG-tagged HDAC2 (unknown origin) using (Ac-Leu-Gly-Lys(Ac)-AMC as substrate preincubated with enzyme for 30 mins followed by substrate addition and measured after 30 mins by fluorescence based assay
Histone deacetylase 2 [8] = molecular target: T1, Histone deacetylase 2; experiment: Inhibition of full length C-terminal FLAG-tagged HDAC2 (unknown origin) using (Ac-Leu-Gly-Lys(Ac)-AMC as substrate preincubated with enzyme for 1 hrs followed by substrate addition and measured after 30 mins by fluorescence based assay
Histone deacetylase 2 [9] = molecular target: T1, Histone deacetylase 2; experiment: Inhibition of full length C-terminal FLAG-tagged HDAC2 (unknown origin) using (Ac-Leu-Gly-Lys(Ac)-AMC as substrate preincubated with enzyme for 2 hrs followed by substrate addition and measured after 30 mins by fluorescence based assay
Histone deacetylase 1 [10] = molecular target: T2, Histone deacetylase 1; experiment: Inhibition of full length C-terminal His-tagged HDAC1 (unknown origin) assessed as rate constant (k1) of EI complex using (Ac-Leu-Gly-Lys(Ac)-AMC as substrate measured every 30 sec for 60 mins by fluorescence based assay
Histone deacetylase 2 [11] = molecular target: T1, Histone deacetylase 2; experiment: Inhibition of full length C-terminal FLAG-tagged HDAC2 (unknown origin) assessed as rate constant (k1) of EI complex using (Ac-Leu-Gly-Lys(Ac)-AMC as substrate measured every 30 sec for 60 mins by fluorescence based assay
Histone deacetylase 1 [12] = molecular target: T2, Histone deacetylase 1; experiment: Inhibition of full length C-terminal His-tagged HDAC1 (unknown origin) assessed as rate constant (k-1) of EI complex using (Ac-Leu-Gly-Lys(Ac)-AMC as substrate measured every 30 sec for 60 mins by fluorescence based assay
Histone deacetylase 2 [13] = molecular target: T1, Histone deacetylase 2; experiment: Inhibition of full length C-terminal FLAG-tagged HDAC2 (unknown origin) assessed as rate constant (k-1) of EI complex using (Ac-Leu-Gly-Lys(Ac)-AMC as substrate measured every 30 sec for 60 mins by fluorescence based assay
Histone deacetylase 1 [14] = molecular target: T2, Histone deacetylase 1; details: time 60.0 min

T2 sequence (Q13547 whole entry): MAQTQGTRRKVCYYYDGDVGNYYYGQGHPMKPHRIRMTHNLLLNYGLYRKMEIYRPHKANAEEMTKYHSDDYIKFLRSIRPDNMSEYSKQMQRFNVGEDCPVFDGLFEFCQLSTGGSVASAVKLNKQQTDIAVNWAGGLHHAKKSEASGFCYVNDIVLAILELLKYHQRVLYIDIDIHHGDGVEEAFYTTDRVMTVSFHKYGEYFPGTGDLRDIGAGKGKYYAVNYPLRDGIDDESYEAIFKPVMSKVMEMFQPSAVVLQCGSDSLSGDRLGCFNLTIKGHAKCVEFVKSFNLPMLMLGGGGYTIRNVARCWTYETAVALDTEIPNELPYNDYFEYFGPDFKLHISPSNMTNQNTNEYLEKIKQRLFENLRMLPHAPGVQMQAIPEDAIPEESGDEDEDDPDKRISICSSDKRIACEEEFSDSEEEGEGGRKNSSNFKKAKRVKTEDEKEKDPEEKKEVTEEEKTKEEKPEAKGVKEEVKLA
T1 sequence (Q92769 whole entry): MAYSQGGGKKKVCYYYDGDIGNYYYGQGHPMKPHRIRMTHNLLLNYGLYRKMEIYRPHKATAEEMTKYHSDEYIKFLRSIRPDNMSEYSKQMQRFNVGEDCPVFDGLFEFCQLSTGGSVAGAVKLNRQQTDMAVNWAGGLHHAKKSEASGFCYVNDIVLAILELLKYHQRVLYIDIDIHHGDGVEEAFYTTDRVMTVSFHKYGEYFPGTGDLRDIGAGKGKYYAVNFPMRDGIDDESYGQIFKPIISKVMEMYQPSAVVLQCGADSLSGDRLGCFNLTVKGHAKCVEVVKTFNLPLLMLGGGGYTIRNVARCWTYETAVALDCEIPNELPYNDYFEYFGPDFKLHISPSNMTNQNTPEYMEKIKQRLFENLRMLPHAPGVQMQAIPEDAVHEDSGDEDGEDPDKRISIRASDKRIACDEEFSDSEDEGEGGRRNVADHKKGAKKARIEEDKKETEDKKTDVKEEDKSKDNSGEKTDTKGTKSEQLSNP

| SMILES | T1/2 (Histone deacetylase 2 [1]) [h] | Ki (Histone deacetylase 2 [2]) [nM] | Ki (Histone deacetylase 1 [3]) [nM] | IC50 (Histone deacetylase 1 [4]) [nM] | IC50 (Histone deacetylase 1 [5]) [nM] | IC50 (Histone deacetylase 1 [6]) [nM] | IC50 (Histone deacetylase 2 [7]) [nM] | IC50 (Histone deacetylase 2 [8]) [nM] | IC50 (Histone deacetylase 2 [9]) [nM] | K (Histone deacetylase 1 [10]) | K (Histone deacetylase 2 [11]) | K (Histone deacetylase 1 [12]) | K (Histone deacetylase 2 [13]) | T1/2 (Histone deacetylase 1 [14]) [h] |
| --- | --- | --- | --- | --- | --- | --- | --- | --- | --- | --- | --- | --- | --- | --- |
| Nc1ccccc1NC(=O)c1ccc(CNC(=O)OCc2cccnc2)cc1 | > 4 |  |  |  |  |  |  |  |  |  |  |  |  |  |
| CCCNNC(=O)c1ccc(CNC(=O)/C=C/c2ccccc2)cc1 | 2.17 | 103 | 40 | 11.3 | 7.07 | 4.89 | 48 | 24.8 | 14 | 7.8 10^-5/nM/min | 5.1 10^-5/nM/min | 3 10^-3/min | 5 10^-3/min | 3.67 |
